# BindingDB's records for doi:10.1016/j.bmcl.2010.10.034 (Bristol-Myers Squibb Research and Development, 2010)
# Target: cAMP-dependent protein kinase catalytic subunit beta (Homo sapiens) (UniProt P22694)
# Assay: Inhibition of PKAbeta
smiles,measurement,value
Cc1ccc(C(=O)Nc2ccon2)cc1NC(=O)c1cnn(-c2ccccc2F)c1N [5-amino-1-(2-fluorophenyl)-N-(5-(isoxazol-3-ylcarbamoyl)-2-methylphenyl)-1H-pyrazole-4-carboxamide],IC50,> 40 µM
